Active and inactive are the calls of the source.
What was measured:
[1] = biological target: T1, Rac GTPase-activating protein 1 (Homo sapiens, UniProt Q9H0H5); assay: blockers of MgcRacGAP-driven Rac1 GTP hydrolysis – biochemical, ADP Hunter fluorescence, primary and confirmatory, confirmation (AID 624330); format: functional
T1 sequence (Q9H0H5 whole entry): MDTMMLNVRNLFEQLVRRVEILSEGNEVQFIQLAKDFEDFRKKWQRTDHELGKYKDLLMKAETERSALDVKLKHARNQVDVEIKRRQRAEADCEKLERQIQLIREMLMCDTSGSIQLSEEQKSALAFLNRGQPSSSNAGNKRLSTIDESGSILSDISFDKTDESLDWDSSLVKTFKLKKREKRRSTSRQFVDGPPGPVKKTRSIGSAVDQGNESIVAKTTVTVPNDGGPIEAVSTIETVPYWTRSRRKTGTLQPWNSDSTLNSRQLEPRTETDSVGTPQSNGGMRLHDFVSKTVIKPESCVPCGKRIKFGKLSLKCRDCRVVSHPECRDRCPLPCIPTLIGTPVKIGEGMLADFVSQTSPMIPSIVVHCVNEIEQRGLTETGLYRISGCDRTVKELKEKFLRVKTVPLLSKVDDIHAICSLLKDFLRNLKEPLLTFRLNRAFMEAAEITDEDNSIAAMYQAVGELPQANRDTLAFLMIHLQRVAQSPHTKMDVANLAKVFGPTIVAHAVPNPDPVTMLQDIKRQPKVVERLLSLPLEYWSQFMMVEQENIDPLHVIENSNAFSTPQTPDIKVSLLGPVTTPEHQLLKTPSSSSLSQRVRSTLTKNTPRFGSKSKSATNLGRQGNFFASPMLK

[2] = viability loss in HeLa cells – cytotoxicity control for MgcRacGAP inhibitor project, dose response (AID 624300); format: functional
[3] = biological target: Delta-type opioid receptor (Homo sapiens, UniProt P41143); assay: Counterscreen for agonists of heterodimerization of the mu 1 (OPRM1) and delta 1 (OPRD1) opioid receptors: Luminescence-based cell-based high throughput dose response assay to identify agonists of OPRD1 homodimerization. [Related pubchem assays (depositor defined):AID504326, AID504355, AID504692, AID504904, AID504905]; format: functional
Chain of Delta-type opioid receptor (P41143 whole entry): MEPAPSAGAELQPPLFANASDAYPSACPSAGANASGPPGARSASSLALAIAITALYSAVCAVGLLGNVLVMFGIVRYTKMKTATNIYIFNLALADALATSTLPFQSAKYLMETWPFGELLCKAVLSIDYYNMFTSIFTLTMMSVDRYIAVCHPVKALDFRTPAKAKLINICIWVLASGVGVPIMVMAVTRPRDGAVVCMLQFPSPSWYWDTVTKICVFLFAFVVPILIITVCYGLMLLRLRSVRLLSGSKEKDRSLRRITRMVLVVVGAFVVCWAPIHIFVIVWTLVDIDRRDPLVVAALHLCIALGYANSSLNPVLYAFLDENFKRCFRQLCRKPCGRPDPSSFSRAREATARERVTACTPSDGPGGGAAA

[4] = biological target: Mu-type opioid receptor (Homo sapiens, UniProt P35372); assay: Counterscreen for agonists of heterodimerization of the mu 1 (OPRM1) and delta 1 (OPRD1) opioid receptors: Luminescence-based cell-based high throughput dose response assay to identify agonists of OPRM1 homodimerization.; format: functional;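 note: U2OS cells expressing OPRM1 and beta-arrestin as split beta-galactosidase partners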
Chain of Mu-type opioid receptor (P35372 whole entry): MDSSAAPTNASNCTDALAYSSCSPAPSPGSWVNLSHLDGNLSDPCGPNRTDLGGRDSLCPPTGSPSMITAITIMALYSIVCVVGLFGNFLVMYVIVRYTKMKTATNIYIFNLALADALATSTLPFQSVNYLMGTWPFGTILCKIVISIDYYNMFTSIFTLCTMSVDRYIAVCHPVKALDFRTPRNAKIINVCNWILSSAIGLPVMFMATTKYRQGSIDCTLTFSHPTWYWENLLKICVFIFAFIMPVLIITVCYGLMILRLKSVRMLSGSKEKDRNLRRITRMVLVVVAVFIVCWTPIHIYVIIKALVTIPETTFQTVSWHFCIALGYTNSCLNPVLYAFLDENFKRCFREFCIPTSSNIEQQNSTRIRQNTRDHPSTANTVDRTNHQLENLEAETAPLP

[5] = NIH3T3 cell viability loss – ATP luminescence, mouse fibroblasts, counter-screen, dose response (AID 2010); format: functional, cell-based;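 note: cells exposed to compound for about 90 hours before reading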
[6] = biological target: 5-hydroxytryptamine receptor 5A (Homo sapiens, UniProt P47898); assay: Counterscreen for agonists of OPRM1-OPRD1 heterodimerization: luminescence-based cell-based high throughput dose response assay to identify agonists of 5-hydroxytryptamine (serotonin) 5A receptor (HTR5A). [Related pubchem assays (depositor defined):AID504326, AID504355, AID504692, AID504904, AID504905]; format: functional
Chain of 5-hydroxytryptamine receptor 5A (P47898 whole entry): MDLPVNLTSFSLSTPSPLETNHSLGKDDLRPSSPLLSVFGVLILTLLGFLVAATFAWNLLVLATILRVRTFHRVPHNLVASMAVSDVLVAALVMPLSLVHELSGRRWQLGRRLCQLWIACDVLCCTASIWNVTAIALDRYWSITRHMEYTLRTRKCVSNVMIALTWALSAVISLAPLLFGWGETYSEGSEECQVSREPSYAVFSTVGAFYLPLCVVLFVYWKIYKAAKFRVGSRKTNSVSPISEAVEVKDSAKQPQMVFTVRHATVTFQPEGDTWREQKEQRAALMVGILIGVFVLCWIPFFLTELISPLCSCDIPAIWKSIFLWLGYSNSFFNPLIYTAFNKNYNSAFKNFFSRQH

[7] = Trypanosoma cruzi growth suppression in host cells – NIH3T3 host cells, beta-gal luminescence, confirmation (AID 2044); format: functional, cell-based;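 note: intracellular parasites grown in NIH/3T3 mouse fibroblasts as host cells; luminescent beta-galactosidase reporter signal from transgenic T. cruzi replicating inside host cells; inhibitors lower the luminescence signal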
[8] = biological target: T2, Short transient receptor potential channel 4 (Mus musculus, UniProt Q9QUQ5); assay: calcium entry via TRPC4 opening agents – cell-based, HEK293 TRPC4/mu-opioid, Fluo-4 calcium, dose response (AID 434937); format: functional
T2 sequence (Q9QUQ5 whole entry): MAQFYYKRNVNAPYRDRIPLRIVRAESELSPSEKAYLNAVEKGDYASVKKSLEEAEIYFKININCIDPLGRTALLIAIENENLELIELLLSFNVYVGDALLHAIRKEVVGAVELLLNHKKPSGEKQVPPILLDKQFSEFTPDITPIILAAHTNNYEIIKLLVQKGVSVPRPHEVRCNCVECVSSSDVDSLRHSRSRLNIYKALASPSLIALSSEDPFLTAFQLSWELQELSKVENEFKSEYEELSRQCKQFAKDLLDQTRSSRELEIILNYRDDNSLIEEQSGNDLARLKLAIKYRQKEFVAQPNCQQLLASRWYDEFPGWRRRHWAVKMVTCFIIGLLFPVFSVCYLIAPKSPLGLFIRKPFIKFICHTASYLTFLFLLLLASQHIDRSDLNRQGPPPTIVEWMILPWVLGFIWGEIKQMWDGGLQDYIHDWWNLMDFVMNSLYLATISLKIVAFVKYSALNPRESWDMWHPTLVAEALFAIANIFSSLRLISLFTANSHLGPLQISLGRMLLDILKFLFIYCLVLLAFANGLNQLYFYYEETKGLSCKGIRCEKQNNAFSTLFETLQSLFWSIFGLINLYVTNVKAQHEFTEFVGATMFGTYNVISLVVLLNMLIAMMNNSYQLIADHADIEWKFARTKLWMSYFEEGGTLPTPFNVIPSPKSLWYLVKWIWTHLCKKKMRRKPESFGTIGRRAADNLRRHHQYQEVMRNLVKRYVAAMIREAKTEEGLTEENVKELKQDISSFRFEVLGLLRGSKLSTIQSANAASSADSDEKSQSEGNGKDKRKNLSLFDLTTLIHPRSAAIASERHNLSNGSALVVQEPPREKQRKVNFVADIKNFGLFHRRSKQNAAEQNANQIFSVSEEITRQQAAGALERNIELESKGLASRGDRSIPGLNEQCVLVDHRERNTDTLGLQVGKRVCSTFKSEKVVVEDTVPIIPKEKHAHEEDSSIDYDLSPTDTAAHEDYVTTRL

[9] = biological target: Nonstructural protein 1 (Influenza A virus, UniProt Q194T2); format: functional, Influenza A virus (A/California/07/2009(H1N1))
Chain of Nonstructural protein 1 (Q194T2 whole entry): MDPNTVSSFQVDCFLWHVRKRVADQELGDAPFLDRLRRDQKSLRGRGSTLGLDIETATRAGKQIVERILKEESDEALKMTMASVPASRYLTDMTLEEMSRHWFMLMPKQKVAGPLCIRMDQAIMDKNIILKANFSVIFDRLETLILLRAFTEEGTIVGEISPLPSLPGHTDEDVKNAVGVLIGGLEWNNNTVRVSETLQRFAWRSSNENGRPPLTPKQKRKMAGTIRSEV

[10] = biological target: T3, Sentrin-specific protease 8 (Homo sapiens, UniProt Q96LD8); format: functional
T3 sequence (Q96LD8 whole entry): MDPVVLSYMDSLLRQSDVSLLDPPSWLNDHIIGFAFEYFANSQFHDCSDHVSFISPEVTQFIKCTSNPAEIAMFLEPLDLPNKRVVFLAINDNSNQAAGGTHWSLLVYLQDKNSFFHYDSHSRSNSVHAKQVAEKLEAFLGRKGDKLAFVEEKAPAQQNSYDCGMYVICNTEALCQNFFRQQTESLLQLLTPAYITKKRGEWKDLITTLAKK

[11] = biological target: T3, Sentrin-specific protease 8; format: functional; remark: listed apart in the source
[12] = biological target: T4, Long-chain-fatty-acid--AMP ligase FadD28 (Mycobacterium tuberculosis, UniProt P9WQ59); assay: Fluorescence polarization aasay to screen for inhibitors that compete for the binding of FadD28 to a bisubstrate Measured in Biochemical System Using Plate Reader - 2147-01_Inhibitor_Dose_CherryPick_Activity.; format: functional, Mycobacterium tuberculosis H37Rv
T4 sequence (P9WQ59 whole entry): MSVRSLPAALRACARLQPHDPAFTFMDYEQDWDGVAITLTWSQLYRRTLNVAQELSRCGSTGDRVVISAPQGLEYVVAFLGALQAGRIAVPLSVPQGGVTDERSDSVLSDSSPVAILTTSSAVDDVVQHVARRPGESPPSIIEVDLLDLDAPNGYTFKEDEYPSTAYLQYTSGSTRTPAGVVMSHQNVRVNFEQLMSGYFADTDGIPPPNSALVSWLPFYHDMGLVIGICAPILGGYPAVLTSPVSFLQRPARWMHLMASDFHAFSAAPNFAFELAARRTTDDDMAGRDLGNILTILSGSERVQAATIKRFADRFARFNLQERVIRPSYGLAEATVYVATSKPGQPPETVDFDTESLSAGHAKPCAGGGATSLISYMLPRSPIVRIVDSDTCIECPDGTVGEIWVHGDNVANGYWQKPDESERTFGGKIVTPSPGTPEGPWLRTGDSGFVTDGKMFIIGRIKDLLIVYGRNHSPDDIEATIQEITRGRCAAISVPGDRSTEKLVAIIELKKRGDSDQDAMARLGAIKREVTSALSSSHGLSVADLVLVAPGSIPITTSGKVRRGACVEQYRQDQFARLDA

[13] = biological target: T5, Corticotropin-releasing factor receptor 2/Corticotropin-releasing factor-binding protein (Homo sapiens, UniProt P24387+Q13324); assay: Dose Response confirmation of uHTS hits for small molecule antagonists of the CRF-binding protein and CRF-R2 receptor complex.; format: functional; details: read-out: IC50_Mean
T5 sequence (Q13324 whole entry): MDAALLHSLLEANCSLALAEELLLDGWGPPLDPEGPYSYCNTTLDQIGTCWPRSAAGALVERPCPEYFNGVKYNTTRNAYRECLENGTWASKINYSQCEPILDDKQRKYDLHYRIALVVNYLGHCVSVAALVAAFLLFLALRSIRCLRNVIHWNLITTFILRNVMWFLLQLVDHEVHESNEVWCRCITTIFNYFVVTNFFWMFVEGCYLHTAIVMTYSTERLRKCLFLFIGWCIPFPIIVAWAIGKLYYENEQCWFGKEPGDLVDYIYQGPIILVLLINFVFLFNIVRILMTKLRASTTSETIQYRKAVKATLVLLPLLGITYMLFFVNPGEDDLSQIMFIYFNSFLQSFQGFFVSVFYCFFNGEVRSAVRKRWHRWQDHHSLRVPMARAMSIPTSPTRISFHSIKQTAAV
T5 sequence (P24387 whole entry): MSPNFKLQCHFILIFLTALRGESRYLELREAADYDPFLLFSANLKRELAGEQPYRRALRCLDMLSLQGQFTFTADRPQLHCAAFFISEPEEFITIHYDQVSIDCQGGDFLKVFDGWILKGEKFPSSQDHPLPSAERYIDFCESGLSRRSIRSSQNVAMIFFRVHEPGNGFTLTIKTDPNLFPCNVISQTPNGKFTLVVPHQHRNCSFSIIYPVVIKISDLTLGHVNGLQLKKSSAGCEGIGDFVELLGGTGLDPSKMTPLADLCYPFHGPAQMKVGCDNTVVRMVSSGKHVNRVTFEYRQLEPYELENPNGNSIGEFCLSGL

[14] = biological target: T5, Corticotropin-releasing factor receptor 2/Corticotropin-releasing factor-binding protein; assay: activators of CRF receptor 2 with binding protein – uHTS hits, confirmation (AID 602473); format: functional; details: read-out: EC50_Mean
[15] = biological target: T6, Heat shock factor protein 1 (Mus musculus, UniProt P38532); assay: enhancement of HSF1-driven luciferase signal – cell-based, NIH3T3, luminescence, dose retest, confirmation (AID 435004); format: functional;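 note: stress induced by proteasome inhibitor MG132 added 30 min after compound; luciferase reporter driven by HSF1 response element in NIH3T3 cells; actives raise luminescence as potentiators of the MG132 stress response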
T6 sequence (P38532 whole entry): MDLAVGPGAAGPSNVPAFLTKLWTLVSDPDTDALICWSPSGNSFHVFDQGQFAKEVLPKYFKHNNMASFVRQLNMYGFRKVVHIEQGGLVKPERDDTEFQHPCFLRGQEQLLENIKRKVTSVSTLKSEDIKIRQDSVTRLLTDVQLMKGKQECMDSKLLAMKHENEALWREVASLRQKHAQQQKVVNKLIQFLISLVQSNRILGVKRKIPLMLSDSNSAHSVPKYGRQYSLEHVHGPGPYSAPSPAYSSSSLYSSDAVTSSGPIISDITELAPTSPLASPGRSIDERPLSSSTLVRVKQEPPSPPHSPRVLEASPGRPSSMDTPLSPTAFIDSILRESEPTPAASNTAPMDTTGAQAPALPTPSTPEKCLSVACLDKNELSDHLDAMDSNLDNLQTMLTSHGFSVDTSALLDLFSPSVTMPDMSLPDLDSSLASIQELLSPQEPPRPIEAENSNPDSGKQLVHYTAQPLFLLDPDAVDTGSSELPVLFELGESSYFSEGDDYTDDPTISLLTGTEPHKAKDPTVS

[16] = biological target: T7, DNA repair and recombination protein RAD54-like (Homo sapiens, UniProt Q92698); assay: RAD54 Holliday junction migration blockers – biochemical, fluorescence, cherry-picked samples, dose series, confirmation (AID 651657); format: functional
T7 sequence (Q92698 whole entry): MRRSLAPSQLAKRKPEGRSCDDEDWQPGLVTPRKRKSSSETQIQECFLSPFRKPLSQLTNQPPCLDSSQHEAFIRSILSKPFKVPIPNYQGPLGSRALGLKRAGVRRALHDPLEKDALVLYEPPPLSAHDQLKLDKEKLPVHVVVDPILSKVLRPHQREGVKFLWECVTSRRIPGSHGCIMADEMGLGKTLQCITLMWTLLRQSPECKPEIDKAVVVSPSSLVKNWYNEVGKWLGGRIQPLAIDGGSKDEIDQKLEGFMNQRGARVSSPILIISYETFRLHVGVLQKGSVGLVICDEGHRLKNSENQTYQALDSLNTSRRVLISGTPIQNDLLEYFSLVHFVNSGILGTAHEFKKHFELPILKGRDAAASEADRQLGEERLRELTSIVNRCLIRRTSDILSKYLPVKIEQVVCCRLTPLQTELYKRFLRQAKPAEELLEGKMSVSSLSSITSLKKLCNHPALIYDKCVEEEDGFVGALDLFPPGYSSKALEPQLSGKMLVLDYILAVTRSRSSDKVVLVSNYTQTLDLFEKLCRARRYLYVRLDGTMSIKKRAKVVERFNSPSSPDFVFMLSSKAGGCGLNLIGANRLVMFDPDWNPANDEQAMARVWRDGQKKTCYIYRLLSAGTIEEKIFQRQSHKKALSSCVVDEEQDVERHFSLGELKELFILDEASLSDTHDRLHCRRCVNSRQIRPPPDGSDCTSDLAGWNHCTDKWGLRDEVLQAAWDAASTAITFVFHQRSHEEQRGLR

Cc1ccc(Cl)c(OCCCN(C)Cc2ccccc2)c1
IC50 [1]: 165 µM (active)
CC50 [2]: 100 µM (active)

CCOC(=O)C1(CCOc2ccccc2)CCN(Cc2cccn2-c2cccnc2)CC1
EC50 [3]: > 92.5 µM (inactive)
EC50 [4]: 17.5 µM (inactive)
EC50 [5]: > 30 µM (not active)
EC50 [6]: > 92.5 µM (inactive)
EC50 [7]: 2.94 µM (active)

CCC1(C)CC(CCNCc2ccc(N(C)C)cc2)(c2ccc(F)cc2)CCO1 (stereo unspecified)
EC50 [3]: > 92.3 µM (inactive)
EC50 [4]: 29.2 µM (inactive)
EC50 [8]: 5.96 µM (active)
EC50 [6]: > 92.3 µM (inactive)

Cc1n[nH]c(O)c1C(c1c(C)n[nH]c1O)c1cn(Cc2ccc(F)cc2)c2ccccc12
IC50 [9]: 47.2 µM (active)
IC50 [10]: 5.81 µM (active)
IC50 [11]: 6.07 µM (active)

O=C(CSc1ccc(Cl)cc1)Nc1ccc(-c2nc3ccccc3[nH]2)cc1
EC50 [3]: > 92.5 µM (inactive)
EC50 [4]: > 92.5 µM (inactive)
EC50 [6]: > 92.5 µM (inactive)

CN(C)S(=O)(=O)c1cccc(C(=O)OCC(=O)Nc2sccc2C#N)c1
AC50 [12]: > 100 µM (inactive)

CN1c2ccccc2C(O)=C(C(S)=Nc2ccc(Cl)cc2)S1(=O)=O
IC50 [13]: 24.7 µM (active)
EC50 [14]: > 53 µM (inactive)
EC50 [15]: > 260 µM (inconclusive)
AC50 [12]: > 100 µM (inactive)

Cc1c(CN(C)C)c2c(n1C)C(=O)c1ccc(Br)cc1-2
AC50 [16]: 11.8 µM (active)

O=Cc1ccc(N2N=C(c3ccccc3)CC2c2ccccc2)cc1 (stereo unspecified)
AC50 [12]: 26.5 µM (active)

CCc1ccc(O)c(/N=C/c2ccccc2O)c1
IC50 [1]: 36.9 µM (active)
CC50 [2]: 100 µM (active)
